Source: PubChem BioAssay (NCI)
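Five compound concentrations were applied to cells in 96-well plates for 48 hours; endpoints were derived by simple linear interpolation of the resulting dose-response curve. TGI denotes the concentration required for complete inhibition of growth.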

Key:
Assay in all cases: NCI tumour cell line growth inhibition, 48 h
[1] = system: LOX IMVI melanoma
[2] = system: MDA-N
[3] = system: OVCAR-8 ovarian
[4] = system: SF-295 CNS
[5] = system: T-47D breast
[6] = system: K-562 leukemia
[7] = system: HL-60(TB) leukemia
[8] = system: ACHN renal
[9] = system: TK-10 renal
[10] = system: NCI-H522 lung

## O=S1(=O)OCCOS(=O)(=O)C1(F)Cc1ccccc1
[1]
  TGI: > 100 µM
[2]
  TGI: > 100 µM
[3]
  TGI: > 100 µM
[4]
  TGI: > 100 µM
[5]
  TGI: > 100 µM
[6]
  TGI: > 100 µM
[7]
  TGI: > 100 µM
[8]
  TGI: > 100 µM
[9]
  TGI: > 100 µM
[10]
  TGI: > 100 µM

## CCOC(=O)/C(C(N)=O)=C(\O)C(=O)/C=C(\O)c1ccc(Cl)cc1
[1]
  TGI: 31 µM
[2]
  TGI: 38.5 µM
[3]
  TGI: 31.7 µM
[4]
  TGI: > 100 µM
[5]
  TGI: 47.9 µM
[8]
  TGI: 39.7 µM
[9]
  TGI: 26 µM
[10]
  TGI: 34.3 µM

## O=C(N/N=C\c1ccc(Cl)cc1)Nc1ccc2ccccc2c1
[1]
  TGI: > 100 µM
[2]
  TGI: > 100 µM
[3]
  TGI: 73.2 µM
[5]
  TGI: > 100 µM
[6]
  TGI: > 100 µM
[8]
  TGI: > 100 µM
[9]
  TGI: > 100 µM
[10]
  TGI: > 100 µM

## CCN(CC)CCC(=O)/C=C/c1ccc(Cl)c(Cl)c1
[2]
  TGI: > 10 µM
[3]
  TGI: > 10 µM
[4]
  TGI: > 10 µM
[5]
  TGI: 5.86 µM
[6]
  TGI: > 10 µM
[7]
  TGI: 1.76 µM
[8]
  TGI: > 10 µM
[9]
  TGI: 9.98 µM
[10]
  TGI: 3.54 µM

## CC(C#N)(NO)C(C)(C#N)NO (stereo unspecified)
[1]
  TGI: > 100 µM
[2]
  TGI: > 100 µM
[3]
  TGI: > 100 µM
[5]
  TGI: > 100 µM
[6]
  TGI: > 100 µM
[7]
  TGI: > 100 µM
[9]
  TGI: > 100 µM
[10]
  TGI: > 100 µM

## COC(=O)[C@@]12CSC[C@]1(C(=O)OC)N[C@@H](c1ccccc1O)C2
[2]
  TGI: > 100 µM
[3]
  TGI: > 100 µM
[4]
  TGI: > 100 µM
[5]
  TGI: > 100 µM
[6]
  TGI: > 100 µM
[7]
  TGI: > 100 µM
[8]
  TGI: > 100 µM
[9]
  TGI: > 100 µM
[10]
  TGI: > 100 µM

## O=C(Cn1c2ccc(Br)cc2c2nc3ccccc3nc21)NCc1ccccc1
[1]
  TGI: > 100 µM
[2]
  TGI: > 100 µM
[3]
  TGI: > 100 µM
[4]
  TGI: > 100 µM
[5]
  TGI: 18.6 µM
[6]
  TGI: > 100 µM
[8]
  TGI: 41.7 µM
[9]
  TGI: 49.5 µM

## NCCCn1c(Cl)nc2ccccc21
[1]
  TGI: > 100 µM
[2]
  TGI: > 100 µM
[3]
  TGI: > 100 µM
[4]
  TGI: > 100 µM
[5]
  TGI: > 100 µM
[6]
  TGI: > 100 µM
[7]
  TGI: > 100 µM
[8]
  TGI: > 100 µM
[10]
  TGI: > 100 µM

## Cc1[nH]c(=O)nc(N/N=C/c2c3ccccc3c(Cl)c3ccccc23)c1C(=O)Nc1ccc(Cl)cc1
[1]
  TGI: > 100 µM
[2]
  TGI: > 100 µM
[3]
  TGI: > 100 µM
[5]
  TGI: > 100 µM
[6]
  TGI: > 100 µM
[7]
  TGI: 44.7 µM
[8]
  TGI: > 100 µM
[9]
  TGI: > 100 µM
[10]
  TGI: > 100 µM

## COc1ccc(C2=C(OC(C)=O)c3cccn3-c3ccc(Cl)cc3S2)cc1
[1]
  TGI: > 10 µM
[2]
  TGI: 4.51 µM
[3]
  TGI: > 10 µM
[4]
  TGI: > 10 µM
[5]
  TGI: > 10 µM
[6]
  TGI: 5.69 µM
[7]
  TGI: 3.02 µM
[9]
  TGI: > 10 µM

## Cc1[nH]n(-c2nc(-c3ccccc3)cc(=O)[nH]2)c(=O)c1CCO
[1]
  TGI: > 100 µM
[2]
  TGI: > 100 µM
[3]
  TGI: > 100 µM
[4]
  TGI: > 100 µM
[5]
  TGI: > 100 µM
[6]
  TGI: > 100 µM
[7]
  TGI: > 100 µM
[8]
  TGI: > 100 µM
[9]
  TGI: > 100 µM

## CCN(CC)Cc1cc(N=Nc2c(O)ccc3c(N=Nc4ccc(O)c(CN(CC)CC)c4)c(O)ccc23)ccc1O
[1]
  TGI: 3.37 µM
[2]
  TGI: 18 µM
[3]
  TGI: 5.27 µM
[4]
  TGI: 20 µM
[5]
  TGI: 32.7 µM
[6]
  TGI: > 36.3 µM
[8]
  TGI: 7.71 µM
[9]
  TGI: 18.8 µM
[10]
  TGI: 10.3 µM

## O=C(O)c1ccc2c(O)c(O)ccc2c1
[1]
  TGI: 57 µM
[2]
  TGI: 38.5 µM
[3]
  TGI: 47.9 µM
[4]
  TGI: 33.5 µM
[5]
  TGI: > 100 µM
[6]
  TGI: > 63.6 µM
[8]
  TGI: 29.3 µM
[9]
  TGI: 18.6 µM
[10]
  TGI: 36.4 µM

## COc1cc2ncnc(NS(=O)(=O)c3cc4ccccc4s3)c2cc1OC
[1]
  TGI: > 100 µM
[2]
  TGI: > 100 µM
[3]
  TGI: > 100 µM
[4]
  TGI: > 100 µM
[5]
  TGI: > 100 µM
[6]
  TGI: > 100 µM
[8]
  TGI: > 100 µM
[9]
  TGI: > 100 µM
[10]
  TGI: > 100 µM

## O=c1cc(NNc2ccccc2)[nH]c(=O)[nH]1
[1]
  TGI: 42.7 µM
[2]
  TGI: 35.1 µM
[3]
  TGI: 46.1 µM
[4]
  TGI: > 100 µM
[6]
  TGI: 91.1 µM
[7]
  TGI: 64.6 µM
[8]
  TGI: 26.1 µM
[9]
  TGI: > 100 µM
[10]
  TGI: 46.2 µM

## CCOP(=O)(OCC)C(c1ccc(F)cc1)N(C(=O)NC(F)(F)F)c1ccc(F)cc1 (stereo unspecified)
[1]
  TGI: > 100 µM
[2]
  TGI: > 100 µM
[3]
  TGI: > 100 µM
[4]
  TGI: > 100 µM
[6]
  TGI: > 100 µM
[7]
  TGI: > 100 µM
[8]
  TGI: > 100 µM
[9]
  TGI: > 100 µM
[10]
  TGI: > 100 µM

## CCCCn1c(=O)[nH]c2c(N)ncnc21
[1]
  TGI: > 100 µM
[2]
  TGI: > 100 µM
[3]
  TGI: > 100 µM
[4]
  TGI: > 100 µM
[6]
  TGI: > 100 µM
[7]
  TGI: > 100 µM
[8]
  TGI: > 100 µM
[9]
  TGI: > 100 µM
[10]
  TGI: > 100 µM

## COP(=O)(OC)C(N)Cc1c[nH]c2ccccc12 (stereo unspecified)
[1]
  TGI: > 100 µM
[2]
  TGI: > 100 µM
[3]
  TGI: > 100 µM
[4]
  TGI: > 100 µM
[5]
  TGI: > 100 µM
[6]
  TGI: > 100 µM
[8]
  TGI: > 100 µM
[9]
  TGI: > 100 µM
[10]
  TGI: > 100 µM

## O=c1c(NCc2ccccc2)c(C2(c3ccccc3F)SCCCS2)c1=O
[1]
  TGI: > 100 µM
[2]
  TGI: > 100 µM
[3]
  TGI: > 100 µM
[4]
  TGI: > 100 µM
[5]
  TGI: > 100 µM
[7]
  TGI: > 100 µM
[8]
  TGI: > 100 µM
[9]
  TGI: > 100 µM
[10]
  TGI: > 100 µM

## O=C1/C(=C/c2cccc([N+](=O)[O-])c2)N=C(c2ccccc2)N1c1nc2ccc(Sc3ccccc3)cc2[nH]1
[1]
  TGI: > 100 µM
[2]
  TGI: 33.3 µM
[3]
  TGI: > 100 µM
[4]
  TGI: > 100 µM
[5]
  TGI: > 100 µM
[6]
  TGI: > 100 µM
[8]
  TGI: > 100 µM
[9]
  TGI: > 100 µM
[10]
  TGI: > 100 µM
